Assay results reported in PubChem BioAssay (NCI).
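In this assay, cells in 96-well plates receive the compound at five concentrations for 48 hours. Endpoints are linearly interpolated between the surrounding concentrations. Here, GI50 denotes the concentration required for 50% inhibition of growth. TGI marks complete inhibition of growth.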

Key:
Test in all cases: DTP human tumour cell line panel, 48 h
[1] = system: 786-0 renal
[2] = system: A498 renal
[3] = system: A549 NSCLC
[4] = system: ACHN renal
[5] = system: BT-549 breast
[6] = system: CAKI-1 renal
[7] = system: COLO 205 colon
[8] = system: DU-145 prostate
[9] = system: EKVX NSCLC
[10] = system: HCC-2998 colon
[11] = system: HCT-15 colon
[12] = system: HOP-62 NSCLC
[13] = system: HOP-92 NSCLC
[14] = system: HS 578T breast
[15] = system: HT29 colon
[16] = system: IGROV1 ovarian
[17] = system: KM12 colon
[18] = system: LOX IMVI melanoma
[19] = system: MALME-3M melanoma
[20] = system: MCF7 breast
[21] = system: MDA-MB-231 breast
[22] = system: MDA-MB-435
[23] = system: MOLT-4 leukemia
[24] = system: NCI-H226 lung
[25] = system: NCI-H23 lung
[26] = system: NCI-H460 lung
[27] = system: NCI-H522 lung
[28] = system: NCI/ADR-RES ovarian
[29] = system: OVCAR-3 ovarian
[30] = system: OVCAR-4 ovarian
[31] = system: OVCAR-5 ovarian
[32] = system: OVCAR-8 ovarian
[33] = system: PC-3 prostate
[34] = system: RPMI-8226 leukemia
[35] = system: RXF 393 renal
[36] = system: SF-268 CNS
[37] = system: SF-295 CNS
[38] = system: SF-539 CNS
[39] = system: SK-MEL-2 melanoma
[40] = system: SK-MEL-28 melanoma
[41] = system: SK-MEL-5 melanoma
[42] = system: SK-OV-3 ovarian
[43] = system: SN12C renal
[44] = system: SNB-19 CNS
[45] = system: SNB-75 CNS
[46] = system: SR leukemia
[47] = system: SW-620 colon
[48] = system: T-47D breast
[49] = system: TK-10 renal
[50] = system: U251 CNS
[51] = system: UACC-257 melanoma
[52] = system: UACC-62 melanoma
[53] = system: UO-31 renal
[54] = system: CCRF-CEM leukemia
[55] = system: HCT-116 colon
[56] = system: HL-60(TB) leukemia
[57] = system: K-562 leukemia
[58] = system: M14 melanoma

Cc1ccc(C(=O)Nc2ccc(CNCCN3CCNCC3)c(C(F)(F)F)c2)cc1C#Cc1cnc2cccnn12
GI50 [1]: 2.17 µM | TGI [1]: 3.89 µM | GI50 [2]: 1.8 µM | TGI [2]: 3.36 µM | GI50 [3]: 1.92 µM | TGI [3]: 3.73 µM | GI50 [4]: 1.82 µM | TGI [4]: 3.27 µM | GI50 [5]: 2.17 µM | TGI [5]: 3.91 µM | GI50 [6]: 1.79 µM | TGI [6]: 3.37 µM | GI50 [7]: 1.93 µM | TGI [7]: 3.87 µM | GI50 [8]: 1.89 µM | TGI [8]: 3.39 µM | GI50 [9]: 2.12 µM | TGI [9]: 4.13 µM | GI50 [10]: 1.97 µM | TGI [10]: 3.62 µM | GI50 [11]: 1.87 µM | TGI [11]: 3.43 µM | GI50 [12]: 1.86 µM | TGI [12]: 3.63 µM | GI50 [13]: 1.45 µM | TGI [13]: 3.25 µM | GI50 [14]: 2.07 µM | TGI [14]: 5.25 µM | GI50 [15]: 1.39 µM | TGI [15]: 2.78 µM | GI50 [16]: 1.85 µM | TGI [16]: 3.49 µM | GI50 [17]: 1.78 µM | TGI [17]: 3.35 µM | GI50 [18]: 1.73 µM | TGI [18]: 3.18 µM | GI50 [19]: 1.71 µM | TGI [19]: 3.39 µM | GI50 [20]: 1.78 µM | TGI [20]: 3.4 µM | GI50 [21]: 1.41 µM | TGI [21]: 2.97 µM | GI50 [22]: 1.77 µM | TGI [22]: 3.3 µM | GI50 [23]: 1.68 µM | TGI [23]: 4.47 µM | GI50 [24]: 1.84 µM | TGI [24]: 3.74 µM | GI50 [25]: 1.85 µM | TGI [25]: 3.45 µM | GI50 [26]: 1.99 µM | TGI [26]: 3.81 µM | GI50 [27]: 1.78 µM | TGI [27]: 3.48 µM | GI50 [28]: 7.54 µM | TGI [28]: 26.7 µM | GI50 [29]: 1.97 µM | TGI [29]: 3.61 µM | GI50 [30]: 2.04 µM | TGI [30]: 4.26 µM | GI50 [31]: 1.79 µM | TGI [31]: 3.31 µM | GI50 [32]: 2.07 µM | TGI [32]: 4.01 µM | GI50 [33]: 1.86 µM | TGI [33]: 3.4 µM | GI50 [34]: 2.18 µM | TGI [34]: 4.91 µM | GI50 [35]: 1.8 µM | TGI [35]: 3.24 µM | GI50 [36]: 2.14 µM | TGI [36]: 4.11 µM | GI50 [37]: 1.78 µM | TGI [37]: 3.31 µM | GI50 [38]: 1.63 µM | TGI [38]: 3.06 µM | GI50 [39]: 1.81 µM | TGI [39]: 3.68 µM | GI50 [40]: 1.73 µM | TGI [40]: 3.19 µM | GI50 [41]: 1.76 µM | TGI [41]: 3.25 µM | GI50 [42]: 2.13 µM | TGI [42]: 3.95 µM | GI50 [43]: 1.77 µM | TGI [43]: 3.38 µM | GI50 [44]: 1.96 µM | TGI [44]: 3.54 µM | GI50 [45]: 0.714 µM | TGI [45]: 3.53 µM | GI50 [46]: 2.47 µM | TGI [46]: > 100 µM | GI50 [47]: 1.94 µM | TGI [47]: 3.65 µM | GI50 [48]: 1.94 µM | TGI [48]: 4.09 µM | GI50 [49]: 1.97 µM | TGI [49]: 3.58 µM | GI50 [50]: 1.72 µM | TGI [50]: 3.21 µM | GI50 [51]: 1.93 µM | TGI [51]: 3.85 µM | GI50 [52]: 1.74 µM | TGI [52]: 3.27 µM | GI50 [53]: 2.46 µM | TGI [53]: 5.9 µM

COc1cc(-c2ccc3ncnc(NCc4ccccc4)c3c2)cnc1OC
GI50 [1]: 2.99 µM | TGI [1]: > 100 µM | GI50 [2]: 1.78 µM | TGI [2]: 6.64 µM | GI50 [3]: 3.59 µM | TGI [3]: > 100 µM | GI50 [4]: 2.92 µM | TGI [4]: > 100 µM | GI50 [5]: 3.25 µM | TGI [5]: > 100 µM | GI50 [6]: 2.02 µM | TGI [6]: > 100 µM | GI50 [54]: 4 µM | TGI [54]: > 100 µM | GI50 [7]: 7.48 µM | TGI [7]: > 100 µM | GI50 [8]: 3.43 µM | TGI [8]: > 100 µM | GI50 [9]: 1.89 µM | TGI [9]: > 100 µM | GI50 [10]: 14.4 µM | TGI [10]: > 100 µM | GI50 [55]: 13.1 µM | TGI [55]: > 100 µM | GI50 [11]: 5.68 µM | TGI [11]: > 100 µM | GI50 [56]: 6.42 µM | TGI [56]: > 100 µM | GI50 [12]: 6.88 µM | TGI [12]: > 100 µM | GI50 [13]: 0.544 µM | TGI [13]: 4.82 µM | GI50 [15]: 5.02 µM | TGI [15]: > 100 µM | GI50 [16]: 1.03 µM | TGI [16]: 3.52 µM | GI50 [57]: 51 µM | TGI [57]: > 100 µM | GI50 [17]: 50.7 µM | TGI [17]: > 100 µM | GI50 [18]: 4.19 µM | TGI [18]: 27.4 µM | GI50 [58]: 16.4 µM | TGI [58]: > 100 µM | GI50 [19]: 9.59 µM | TGI [19]: > 100 µM | GI50 [20]: 0.658 µM | TGI [20]: 19 µM | GI50 [21]: 4.72 µM | TGI [21]: > 100 µM | GI50 [22]: 56 µM | TGI [22]: > 100 µM | GI50 [23]: 3.8 µM | TGI [23]: > 100 µM | GI50 [24]: 4.68 µM | TGI [24]: > 100 µM | GI50 [26]: 5.83 µM | TGI [26]: > 100 µM | GI50 [27]: 4.65 µM | TGI [27]: > 100 µM | GI50 [28]: 7.97 µM | TGI [28]: > 100 µM | GI50 [29]: 3.94 µM | TGI [29]: > 100 µM | GI50 [30]: 62.7 µM | TGI [30]: > 100 µM | GI50 [31]: 2.97 µM | TGI [31]: > 100 µM | GI50 [32]: 9.42 µM | TGI [32]: > 100 µM | GI50 [33]: 2.79 µM | TGI [33]: > 100 µM | GI50 [34]: 4.38 µM | TGI [34]: > 100 µM | GI50 [35]: 1.33 µM | TGI [35]: 6.1 µM | GI50 [36]: 6.43 µM | TGI [36]: > 100 µM | GI50 [37]: 3.83 µM | TGI [37]: > 100 µM | GI50 [38]: 4.8 µM | TGI [38]: > 100 µM | GI50 [39]: 19.5 µM | TGI [39]: > 100 µM | GI50 [40]: 9.68 µM | TGI [40]: > 100 µM | GI50 [41]: 10.7 µM | TGI [41]: > 100 µM | GI50 [43]: 3.74 µM | TGI [43]: > 100 µM | GI50 [44]: 9.33 µM | TGI [44]: > 100 µM | GI50 [45]: 0.655 µM | TGI [45]: 6.87 µM | GI50 [46]: 7.24 µM | TGI [46]: > 100 µM | GI50 [47]: 34.2 µM | TGI [47]: > 100 µM | GI50 [48]: 0.192 µM | TGI [48]: 2.82 µM | GI50 [50]: 77.3 µM | TGI [50]: > 100 µM | GI50 [51]: 69.8 µM | TGI [51]: > 100 µM | GI50 [52]: 2.97 µM | TGI [52]: > 100 µM | GI50 [53]: 1.45 µM | TGI [53]: > 100 µM
